According to patent publication US20240181111A1, “SYSTEMS AND METHODS FOR AIR SANITIZATION USING FORMULAS CONTAINING AN ORGANIC ACID” (The Clorox Company, priority 2022, published 2024):
Where “and” joins values, the source holds several entries; their conditions need not be identical. Equal entries are not always repeated. Where two headings read alike, the source gives them in different places.

Tests used:
[1] = cited from earlier work
[2] = cited from earlier work; remark: listed apart in the source
[3] = Candidate screening for antimicrobial synergy with lactic acid
Experimental: In addition to tested organic acids, a number of glycols, alcohols, diols and other candidates were also screened, for pairing with the organic acid. Viable candidates may also have: 1) a vapor pressure characteristics as noted above; 2) be soluble in water; and/or 3) have an ECHA Inhalation Threshold for the General Population of greater than 10 mg/m^3.
As such, while glycols may optionally be present, in an embodiment, the present formulations may be void, or substantially void of such glycol components (particularly propylene glycol and glycols including an ether group). The same may be said for various other candidate materials noted in Table 2.

[4] = cited from earlier work; remark: listed apart in the source
[5] = Acid dissociation of lactic acid; assay type: physicochemical; details: at a pH of 2.2
Text: In another aspect, the pH of the antimicrobial formulation is kept low. A low pH can be important for lactic acid or other acids to achieve air sanitization efficacy. […].

[6] = Table 2 candidates for pairing with the organic acid
[7] = Table 1 organic acids, standard conditions (e.g., 20° C. and 1 atmosphere)
[8] = organic acids, long term inhalation

CCC(O)CO (stereo not shown) [1,2-butanediol]
ECHA Inhalation Threshold for General Population ([1]; Table 2 candidates): No hazard identified
Vapor Pressure [2, 6]: 10 Pa

CCCCC(O)CO (stereo not shown) [1,2-hexanediol (HDO), 1,2-hexanediol]
antimicrobial synergy with lactic acid [3]: synergy with lactic acid

CC(O)CCO (stereo not shown) [1,3-butanediol]
Vapor Pressure [2, 6]: 26 Pa

CCCCCCCCCCCCO [1-dodecanol]
ECHA Inhalation Threshold for General Population ([1]; Table 2 candidates): 77 mg/m^3

O=C(O)CCO [3-hydroxypropionic acid]
Solubility in water (g of compound in 100 g of water at ~20° C.) [4]: Very soluble^1

CC(=O)O [acetic acid]
ECHA local effects DNEL ([1]; local effects): 25 mg/m^3)^1
Vapor Pressure [2, 7]: 2080^3 Pa

O=C(O)CCCCC(=O)O [adipic acid]
Vapor Pressure [2, 7]: 9.70^1 Pa

O=C(O)c1ccccc1 [benzoic acid]
ECHA Inhalation Threshold for General Population [1, 8]: 1.5^3 mg/m^3
Vapor Pressure [2, 7]: 0.11^1 Pa

O=C(O)CO [glycolic acid]
ECHA Inhalation Threshold for General Population [1, 8]: 2.6 mg/m^3 and 2.6^3 mg/m^3

CCCCCCC(=O)O [heptanoic acid]
Solubility in water (g of compound in 100 g of water at ~20° C.) [4]: 0.2^2 g of compound in 100 g of water

CCCCCC(=O)O [hexanoic acid]
ECHA Inhalation Threshold for General Population [1, 8]: 4.35^3 mg/m^3
Vapor Pressure [2, 7]: 5.80^1 Pa

CC(O)C(=O)O (stereo not shown) [lactic acid]
fraction of lactic acid in the acidic form [5]: at least 95%

O=C(O)CC(=O)O [malonic acid]
ECHA Inhalation Threshold for General Population [1, 8]: 1.04^3 mg/m^3

CC(=O)C(=O)O [pyruvic acid]
Solubility in water (g of compound in 100 g of water at ~20° C.) [4]: 100^1 g of compound in 100 g of water
solubility ([4]; standard conditions (room temperature and 1 atm)): about 100 g/100 g water
